Measured values from patent publication US11702404B2, “GLP-1R modulating compounds” (priority 2019, dated 2023).
pEC50: −log10 of the molar value. Like-named read-outs stand apart in the source and are kept apart here.

Assays:
GLP-1R = GLP-1R (Homo sapiens, UniProt P43220); test: GLP-1R activation: cAMP increase in CHO cells stably expressing GLP-1R; format: cell-based; settings: for pEC50: read-out: EC50
[1] = Microsomal stability, human liver microsomes (predicted hepatic clearance); settings: predicted from in vitro microsomal stability data
[2] = cAMP increase, CHO cells stably expressing GLP-1R, 10 point dose response, 30 minutes incubation

GLP-1R, sequence (P43220 24-463): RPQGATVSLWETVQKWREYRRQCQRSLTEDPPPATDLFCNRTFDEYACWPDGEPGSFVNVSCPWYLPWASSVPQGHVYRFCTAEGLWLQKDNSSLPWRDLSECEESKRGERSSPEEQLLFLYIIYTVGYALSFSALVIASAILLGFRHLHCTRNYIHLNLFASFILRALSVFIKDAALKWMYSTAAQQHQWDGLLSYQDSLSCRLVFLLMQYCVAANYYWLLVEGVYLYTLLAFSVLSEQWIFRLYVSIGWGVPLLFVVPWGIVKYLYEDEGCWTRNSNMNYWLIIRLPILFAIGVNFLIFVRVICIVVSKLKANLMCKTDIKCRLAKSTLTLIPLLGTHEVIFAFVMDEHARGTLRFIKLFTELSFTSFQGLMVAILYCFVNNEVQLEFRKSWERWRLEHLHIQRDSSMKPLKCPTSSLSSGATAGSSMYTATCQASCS

| Structure (SMILES) | pEC50 (GLP-1R; [2]) | Predicted Hepatic Clearance (Pred. Cl.) [1] | pEC50 (GLP-1R) | EC50 (GLP-1R; EC50 (nM)) |
| --- | --- | --- | --- | --- |
| COCCn1c(Cc2ccc(-c3cccc(OCc4cc(F)c(Cl)cc4OC)n3)cc2F)nc2ccc(C(=O)O)cc21 [Example 481, 2-(4-(6-((4-chloro-5-fluoro-2-methoxybenzyl)oxy)pyridin-2-yl)-2-fluorobenzyl)-1-(2-methoxyethyl)-1H-benzo[d]imidazole-6-carboxylic acid] | 8.54 | <1.83 mL/min/kg | – | – |
| CC(=O)N1CC[C@@H]1Cn1c(Cc2ccc(-c3cccc(OCc4ccc(C#N)cc4F)n3)cc2F)nc2ccc(C(=O)O)cc21 [Example 483, (R)-1-((1-acetylazetidin-2-yl)methyl)-2-(4-(6-((4-cyano-2-fluorobenzyl)oxy)pyridin-2-yl)-2-fluorobenzyl)-1H-benzo[d]imidazole-6-carboxylic acid] | – | 2.5 mL/min/kg | 8.40 | – |
| N#Cc1ccc(COc2cccc(-c3ccc(Cc4nc5ccc(C(=O)O)cc5n4Cc4ccon4)c(F)c3)n2)c(F)c1 [Example 484, 2-(4-(6-((4-cyano-2-fluorobenzyl)oxy)pyridin-2-yl)-2-fluorobenzyl)-1-(isoxazol-3-ylmethyl)-1H-benzo[d]imidazole-6-carboxylic acid] | 8.97 | 3.45 mL/min/kg | – | – |
| CC(=O)NCCn1c(Cc2ccc(-c3cccc(OCc4ccc(C#N)cc4F)n3)cc2F)nc2ccc(C(=O)O)cc21 [Example 485, 1-(2-acetamidoethyl)-2-(4-(6-((4-cyano-2-fluorobenzyl)oxy)pyridin-2-yl)-2-fluorobenzyl)-1H-benzo[d]imidazole-6-carboxylic acid] | – | 3.67 mL/min/kg | 6.99 | – |
| N#Cc1ccc(COc2cccc(-c3cc(F)c(Cc4nc5ccc(C(=O)O)cc5n4Cc4ccon4)cc3F)n2)c(F)c1 [Example 486, 2-(4-(6-((4-cyano-2-fluorobenzyl)oxy)pyridin-2-yl)-2,5-difluorobenzyl)-1-(isoxazol-3-ylmethyl)-1H-benzo[d]imidazole-6-carboxylic acid] | 8.98 | 5 mL/min/kg | – | – |
| COCCn1c(Cc2ccc(-c3cccc(OCc4ccc(C(F)(F)F)nc4F)n3)cc2F)nc2ccc(C(=O)O)cc21 [Example 487, 2-(2-fluoro-4-(6-((2-fluoro-6-(trifluoromethyl)pyridin-3-yl)methoxy)pyridin-2-yl)benzyl)-1-(2-methoxyethyl)-1H-benzo[d]imidazole-6-carboxylic acid] | 7.00 | 5.33 mL/min/kg | – | – |
| CC(=O)N1CCC[C@H](Cn2c(Cc3ccc(-c4cccc(OCc5ccc(C#N)cc5F)n4)cc3F)nc3ccc(C(=O)O)cc32)C1 [Example 488, (R)-1-((1-acetylpiperidin-3-yl)methyl)-2-(4-(6-((4-cyano-2-fluorobenzyl)oxy)pyridin-2-yl)-2-fluorobenzyl)-1H-benzo[d]imidazole-6-carboxylic acid] | 5.96 | 10 mL/min/kg | – | – |
| Cc1conc1Cn1c(Cc2ccc(-c3cccc(OCc4ccc(C#N)cc4F)n3)cc2F)nc2ccc(C(=O)O)cc21 [Example 490, 2-(4-(6-((4-cyano-2-fluorobenzyl)oxy)pyridin-2-yl)-2-fluorobenzyl)-1-((4-methylisoxazol-3-yl)methyl)-1H-benzo[d]imidazole-6-carboxylic acid] | 8.26 | 3.67 mL/min/kg | – | – |
| N#Cc1ccc(COc2cccc(-c3ccc(Cc4nc5ccc(C(=O)O)cc5n4Cc4cn[nH]c4)c(F)c3)n2)c(F)c1 [Example 491, 1-((1H-pyrazol-4-yl)methyl)-2-(4-(6-((4-cyano-2-fluorobenzyl)oxy)pyridin-2-yl)-2-fluorobenzyl)-1H-benzo[d]imidazole-6-carboxylic acid] | 7.71 | 12.7 mL/min/kg | – | – |
| N#Cc1ccc(COc2cccc(-c3ccc(Cc4nc5c(F)cc(C(=O)O)cc5n4C[C@@H]4CCO4)cc3F)n2)c(F)c1 [Example 492, (S)-2-(4-(6-((4-cyano-2-fluorobenzyl)oxy)pyridin-2-yl)-3-fluorobenzyl)-4-fluoro-1-(oxetan-2-ylmethyl)-1H-benzo[d]imidazole-6-carboxylic acid] | 8.29 | <1.83 mL/min/kg | – | – |
| COCCn1c(Cc2ccc(-c3cccc(OCc4nccnc4OC)n3)cc2F)nc2ccc(C(=O)O)cc21 [Example 493, 2-(2-fluoro-4-(6-((3-methoxypyrazin-2-yl)methoxy)pyridin-2-yl)benzyl)-1-(2-methoxyethyl)-1H-benzo[d]imidazole-6-carboxylic acid] | 6.59 | 19.2 mL/min/kg | – | – |
| COCCn1c(Cc2ccc(-c3cccc(O[C@@H](C)c4ccccc4)n3)cc2F)nc2ccc(C(=O)O)cc21 [Example 494, (S)-2-(2-fluoro-4-(6-(1-phenylethoxy)pyridin-2-yl)benzyl)-1-(2-methoxyethyl)-1H-benzo[d]imidazole-6-carboxylic acid] | 5.34 | 13.2 mL/min/kg | – | – |
| COCCn1c(Cc2ccc(-c3cccc(OCc4cccc(S(C)(=O)=O)c4)n3)cc2F)nc2ccc(C(=O)O)cc21 [Example 495, 2-(2-fluoro-4-(6-((3-(methylsulfonyl)benzyl)oxy)pyridin-2-yl)benzyl)-1-(2-methoxyethyl)-1H-benzo[d]imidazole-6-carboxylic acid] | 6.11 | 5.83 mL/min/kg | – | – |
| COCCn1c(Cc2ccc(-c3cccc(OCc4ccccc4COC)n3)cc2F)nc2ccc(C(=O)O)cc21 [Example 496, 2-(2-fluoro-4-(6-((2-(methoxymethyl)benzyl)oxy)pyridin-2-yl)benzyl)-1-(2-methoxyethyl)-1H-benzo[d]imidazole-6-carboxylic acid] | 5.70 | 18.2 mL/min/kg | – | – |
| COCCn1c(Cc2ccc(-c3cccc(OCc4cccc(C#N)c4)n3)cc2F)nc2ccc(C(=O)O)cc21 [Example 497, 2-(4-(6-((3-cyanobenzyl)oxy)pyridin-2-yl)-2-fluorobenzyl)-1-(2-methoxyethyl)-1H-benzo[d]imidazole-6-carboxylic acid] | 5.87 | 5.33 mL/min/kg | – | – |
| COCCn1c(Cc2ccc(-c3cccc(OCc4ccc(C#N)cc4)n3)cc2F)nc2ccc(C(=O)O)cc21 [Example 499, 2-(4-(6-((4-cyanobenzyl)oxy)pyridin-2-yl)-2-fluorobenzyl)-1-(2-methoxyethyl)-1H-benzo[d]imidazole-6-carboxylic acid] | – | 3.5 mL/min/kg | – | 8.18 nM |
| COCCn1c(Cc2ccc(-c3cccc(OCc4ccccc4-c4ccccc4)n3)cc2F)nc2ccc(C(=O)O)cc21 [Example 500, 2-(4-(6-([1,1′-biphenyl]-2-ylmethoxy)pyridin-2-yl)-2-fluorobenzyl)-1-(2-methoxyethyl)-1H-benzo[d]imidazole-6-carboxylic acid] | 6.32 | 9.67 mL/min/kg | – | – |
| COCCn1c(Cc2ccc(-c3cccc(OCc4ccccc4)n3)cc2F)nc2ccc(C(=O)O)cc21 [Example 501, 2-(4-(6-(benzyloxy)pyridin-2-yl)-2-fluorobenzyl)-1-(2-methoxyethyl)-1H-benzo[d]imidazole-6-carboxylic acid] | 6.99 | 11.5 mL/min/kg | – | – |
| COCCn1c(Cc2ccc(-c3cccc(OCn4ccc(C(N)=O)cc4=O)n3)cc2F)nc2ccc(C(=O)O)cc21 [Example 502, 2-(4-(6-((4-carbamoyl-2-oxopyridin-1(2H)-yl)methoxy)pyridin-2-yl)-2-fluorobenzyl)-1-(2-methoxyethyl)-1H-benzo[d]imidazole-6-carboxylic acid] | 5.62 | 2.67 mL/min/kg | – | – |
| COCCn1c(Cc2ccc(-c3cccc(OCc4cccc(-c5ccccc5)c4)n3)cc2F)nc2ccc(C(=O)O)cc21 [Example 504, 2-(4-(6-([1,1′-biphenyl]-3-ylmethoxy)pyridin-2-yl)-2-fluorobenzyl)-1-(2-methoxyethyl)-1H-benzo[d]imidazole-6-carboxylic acid] | 7.55 | 3.5 mL/min/kg | – | – |
| COCCn1c(Cc2ccc(-c3cccc(OCc4cccc(OC(F)F)c4)n3)cc2F)nc2ccc(C(=O)O)cc21 [Example 505, 2-(4-(6-((3-(difluoromethoxy)benzyl)oxy)pyridin-2-yl)-2-fluorobenzyl)-1-(2-methoxyethyl)-1H-benzo[d]imidazole-6-carboxylic acid] | 7.39 | <1.83 mL/min/kg | – | – |
| COCCn1c(Cc2ccc(-c3cccc(OCc4ccccc4NC(=O)OC(C)(C)C)n3)cc2F)nc2ccc(C(=O)O)cc21 [Example 506, 2-(4-(6-((2-((tert-butoxycarbonyl)amino)benzyl)oxy)pyridin-2-yl)-2-fluorobenzyl)-1-(2-methoxyethyl)-1H-benzo[d]imidazole-6-carboxylic acid] | 5.66 | 12.5 mL/min/kg | – | – |
| COCCn1c(Cc2ccc(-c3cccc(OCc4ccccc4C(F)F)n3)cc2F)nc2ccc(C(=O)O)cc21 [Example 507, 2-(4-(6-((2-(difluoromethyl)benzyl)oxy)pyridin-2-yl)-2-fluorobenzyl)-1-(2-methoxyethyl)-1H-benzo[d]imidazole-6-carboxylic acid] | 6.44 | 19.2 mL/min/kg | – | – |
| COCCn1c(Cc2ccc(-c3cccc(OCc4ccc(C(F)(F)F)cc4)n3)cc2F)nc2ccc(C(=O)O)cc21 [Example 508, 2-(2-fluoro-4-(6-((4-(trifluoromethyl)benzyl)oxy)pyridin-2-yl)benzyl)-1-(2-methoxyethyl)-1H-benzo[d]imidazole-6-carboxylic acid] | 7.78 | 2.5 mL/min/kg | – | – |
| COCCn1c(Cc2ccc(-c3cccc(OCc4cccc(COC)c4)n3)cc2F)nc2ccc(C(=O)O)cc21 [Example 509, 2-(2-fluoro-4-(6-((3-(methoxymethyl)benzyl)oxy)pyridin-2-yl)benzyl)-1-(2-methoxyethyl)-1H-benzo[d]imidazole-6-carboxylic acid] | 6.99 | 12 mL/min/kg | – | – |
